According to PMC8745710, “Biological Evaluation and Molecular Docking Studies of Novel 1,3,4-Oxadiazole Derivatives of 4,6-Dimethyl-2-sulfanylpyridine-3-carboxamide” (International Journal of Molecular Sciences, 2022):
Read-outs that look alike come from different tables or passages of the source.

Key:
[1] = tested on: NHDF (normal human dermal fibroblasts); experiment: MTT assay, NHDF; type: cell-based; details: 48 h incubation, read-out: IC50 [µM] ± SD NHDF
Source text: (§1) The MTT (3-[4,5-dimethylthiazol-2-yl]-2,5-diphenyl tetrazolium bromide) assay was used to determine the cytotoxicity of tested compounds towards different cell lines: normal human dermal fibroblasts (NHDF), kidney epithelial cells (VERO), fibroblasts from Chinese hamster lung (V79) and four human cancer cells: A549 (pulmonary basal cell alveolar adenocarcinoma), MCF-7 (breast adenocarcinoma), LoVo (colon adenocarcinoma), and its drug resistant subline LoVo/Dx. The cell lines used in this study express COX-1 and COX-2. The LoVo line expressed COX-1, the LoVo/Dx subline express both COX-1 and COX-2 [61].
(§2) Each cell line was grown in the culture media recommended by supplier. Before the test they were detached with trypsin/EDTA solution, then to neutralize the effect of Trypsin/EDTA solution, FBS containing medium was used. After centrifugation the cells were stained with 0.4% solution of trypan blue, counted and inspected for viability using microscope. In the end, cells were inserted into 96-well culture plates and incubated in CO2 incubator (37 °C, 24 h). The number of cells was 2 × 10^3 cells per well. The tested compounds with different concentrations (5, 10, 20, 50, 100 µM) were dissolved in DMSO and then added to the cells (the final DMSO concentration was 0.1%). The cultures were incubated for another 48 h. After that time the cells were collected to be used in tests.
(§3) MTT assay was used to find out how tested compounds influence the metabolic activity of investigated cell lines. The cells were incubated with tested compounds. After removing of supernatant, 1 mg/mL of MTT solution in MEM was added to the plate (to each well) and then the plates were incubated at 37 °C for 2 h. The medium was removed again, and formazan crystals were dissolved in isopropanol. A Varioscan LUX microplate reader (Thermo Fisher Scientific, Waltham, MA, USA) was used to measure absorbance at 570 nm.

[2] = tested on: VERO (kidney epithelial cells); experiment: MTT assay, VERO; type: cell-based; details: Chlorocebus sabaeus, Vero, 48 h incubation, read-out: IC50 [µM] ± SD VERO
Source text: as §1, §2, §3

[3] = tested on: MCF-7 (breast adenocarcinoma); experiment: MTT assay, MCF-7; type: cell-based; details: Homo sapiens, MCF7, 48 h incubation, read-out: IC50 [µM] ± SD MCF-7
Source text: as §1, §2, §3

[4] = tested on: LoVo (colon adenocarcinoma); experiment: MTT assay, LoVo; type: cell-based; details: Homo sapiens, 48 h incubation, read-out: IC50 [µM] ± SD LoVo
Source text: as §1, §2, §3

V79 cell line = experiment: Intracellular ROS level (DCFH-DA), V79 cells; type: cell-based, Chinese hamster; details: Cricetulus griseus, 4 h, V79, compound 100 μM
Procedure: (§4) Two cell lines were chosen for investigations: V79 (Chinese hamster lung fibroblasts) and LoVo. V79 normal cells are widely used as the cell line tested in the studies of the oxidative stress. These cells are a living system model to explain the mechanism of ROS effects caused by varied compounds [73].
(§5) First, the tested compounds (in concentration of 100 μM) were added to the cell cultures and cells were incubated for 4 h. Then cells were washed and incubated with DCFH-DA (non-fluorescent probe) in dark at 37 °C for 2 h at CO2 [79]. Non-fluorescent, non-polar DCFH-DA (2′7′-dichlorodihydrofluorescein diacetate) at concentration of 25 μM was used as a marker of oxidative stress to determine the intracellular ROS levels. […] In this time, DCFH-DA which penetrated into the cells, was hydrolyzed by esterases to polar, non-fluorescent DCFH (2′7′-dichlorodihydrofluorescein) and then oxidized in the presence of ROS (reactive oxygen species) to fluorescent DCF (2′7′-dichlorofluorescein). DCF was measured using Varioscan LUX microplate reader (Thermo Fisher Scientific, Waltham, MA, USA) at λex = 485 nm and λem = 535 nm. Then results were presented as E/E0 where E is test sample value and E0—control value.
[…] E is the culture with the tested compound and E0 is the negative control without the compound. The routine statistical methods: two-way analysis of variance ANOVA as well as Tukey’s post-hoc test were used. It allowed us to determine the statistical significance of results, where p < 0.05 was set as significant. The statistical indicators were estimated using Statistica 13.3 software.

LoVo cell line = experiment: Intracellular ROS level (DCFH-DA), LoVo cells; type: cell-based; details: Homo sapiens, 4 h, compound 100 μM
Procedure: as §4
as §5, with “nm.” for “nm. Then results were presented as E/E0 where E is test sample value and E0—control value.”
E is the culture with the tested compound and E0 is the negative control without the compound. The routine statistical methods: two-way analysis of variance ANOVA as well as Tukey’s post-hoc test were used. It allowed us to determine the statistical significance of results, where p < 0.05 was set as significant. The statistical indicators were estimated using Statistica 13.3 software.

[5] = with H2O2 (100 μM, 30 min), n = 5, read-out: ROS scavenging activity, Mean E/E0 ± SD, with H2O2
[6] = without H2O2, n = 5, read-out: ROS scavenging activity, Mean E/E0 ± SD, without H2O2

| SMILES | IC50 [3] [µM] | IC50 [4] [µM] | melting point [°C] | IC50 [1] [µM] | IC50 [2] [µM] | activity at 100 µM (V79 cell line; [5]) [%] | activity at 100 µM (V79 cell line; [6]) [%] | activity at 100 µM (LoVo cell line; [5]) [%] | activity at 100 µM (LoVo cell line; [6]) [%] |
| --- | --- | --- | --- | --- | --- | --- | --- | --- | --- |
| Cc1cc(C)c(C(=O)NCc2nn(CC(=O)NN)c(=S)o2)c(S)n1 [Compound 4, N-{[4-(2-hydrazinyl-2-oxoethyl)-5-sulfanylidene-4,5-dihydro-1,3,4-oxadiazol-2-yl]methyl}-4,6-dimethyl-2-sulfanylpyridine-3-carboxamide] | 9.63 ± 1.66 | 3.01 ± 0.2 | 201 to 205 | 57.5 ± 1.22 | 77.4 ± 5.84 | 42 ± 8 | 53 ± 22 | 83 ± 8 | 69 ± 33 |
| Cc1cc(C)c(C(=O)NCc2nn(CC(=O)NN=Cc3ccc(F)cc3)c(=S)o2)c(S)n1 [Compound 6, 4,6-Dimethyl-N-{[4-(2-(2-(4-fluorobenzylidene)hydrazinyl)-2-oxoethyl)-5-sulfanylidene-4,5-dihydro-1,3,4-oxadiazole-2-yl]methyl}-2-sulfanylpyridine-3-carboxamide] | 6.37 ± 0.19 | 3.2 ± 0.26 | 295 to 298 | 58.2 ± 0.92 | 59.6 ± 5.42 | 97 ± 11 | 82 ± 17 | 88 ± 4 | 74 ± 22 |
| CSc1ccc(/C=N\NC(=O)Cn2nc(CNC(=O)c3c(C)cc(C)nc3S)oc2=S)cc1 [Compound 8, 4,6-Dimethyl-N-{[4-(2-(2-(4-methysulfanylbenzylidene)hydrazinyl)-2-oxoethyl)-5-sulfanylidene-4,5-dihydro-1,3,4-oxadiazole-2-yl]methyl}-2-sulfanylpyridine-3-carboxamide] | 9.41 ± 4.8 | 3.6 ± 0.55 | 235 to 238 | 58.7 ± 1.94 | 50.4 ± 2.45 | 72 ± 11 | 85 ± 29 | 80 ± 22 | 65 ± 20 |
| Cc1cc(C)c(C(=O)NCc2nn(CC(=O)NN=Cc3ccc(C#N)cc3)c(=S)o2)c(S)n1 [Compound 9, 4,6-Dimethyl-N-{[4-(2-(2-(4-cyanobenzylidene)hydrazinyl)-2-oxoethyl)-5-sulfanylidene-4,5-dihydro-1,3,4-oxadiazole-2-yl]methyl}-2-sulfanylpyridine-3-carboxamide] | 8.22 ± 5.98 | 3.24 ± 0.1 | 298 to 300 | 59.4 ± 1.9 | 89.8 ± 8.43 | 71 ± 12 | 78 ± 31 | 91 ± 19 | 76 ± 22 |
| Cc1cc(C)c(C(=O)NCc2nn(CC(=O)NN=Cc3ccc(C(F)(F)F)cc3)c(=S)o2)c(S)n1 [Compound 11, 4,6-Dimethyl-N-{[4-(2-(2-(4-trifluoromethylbenzylidene)hydrazinyl)-2-oxoethyl)-5-sulfanylidene-4,5-dihydro-1,3,4-oxadiazole-2-yl]methyl}-2-sulfanylpyridine-3-carboxamide] | 8.29 ± 4.45 | 3.12 ± 0.31 | 253 to 255 | 59 ± 3.62 | 104 ± 4.98 | 112 ± 20 | 67 ± 24 | 84 ± 17 | 124 ± 65 |
| Cc1cc(C)c(C(=O)NCc2nn(CC(=O)NN=Cc3cccc(Cl)c3)c(=S)o2)c(S)n1 [Compound 12, 4,6-Dimethyl-N-{[4-(2-(2-(3-chlorobenzylidene)hydrazinyl)-2-oxoethyl)-5-sulfanylidene-4,5-dihydro-1,3,4-oxadiazole-2-yl]methyl}-2-sulfanylpyridine-3-carboxamide] | 9.04 ± 2.84 | 3.07 ± 0.21 | 273 to 275 | 58.7 ± 2.21 | 79.2 ± 14.4 | 62 ± 25 | 68 ± 27 | 79 ± 16 | 91 ± 43 |
| Cc1cc(C)c(C(=O)NCc2nn(CC(=O)NN=Cc3ccccc3Br)c(=S)o2)c(S)n1 [Compound 13, 4,6-Dimethyl-N-{[4-(2-(2-(2-bromobenzylidene)hydrazinyl)-2-oxoethyl)-5-sulfanylidene-4,5-dihydro-1,3,4-oxadiazole-2-yl]methyl}-2-sulfanylpyridine-3-carboxamide] | 7.23 ± 0.49 | 2.89 ± 0.08 | 285 to 288 | 59.3 ± 3.43 | 55.7 ± 1.84 | 50 ± 15 | 59 ± 8 | 69 ± 10 | 70 ± 30 |

Continued, in another order:

| IC50 [3] [µM] | IC50 [4] [µM] | melting point [°C] | SMILES | IC50 [1] [µM] | IC50 [2] [µM] | activity at 100 µM (V79 cell line; [5]) [%] | activity at 100 µM (V79 cell line; [6]) [%] | activity at 100 µM (LoVo cell line; [5]) [%] | activity at 100 µM (LoVo cell line; [6]) [%] |
| --- | --- | --- | --- | --- | --- | --- | --- | --- | --- |
| 6.37 ± 1.09 | 3.13 ± 0.17 | 236 to 239 | Cc1cc(C)c(C(=O)NCc2nn(CC(=O)NN=Cc3ccccc3)c(=S)o2)c(S)n1 [Compound 5, 4,6-Dimethyl-N-{[4-(2-(2-benzylidenehydrazinyl)-2-oxoethyl)-5-sulfanylidene-4,5-dihydro-1,3,4-oxadiazol-2-yl]methyl}-2-sulfanylpyridine-3-carboxamide] | 59 ± 1.49 | 100 ± 13.5 | 59 ± 21 | 82 ± 13 | 87 ± 21 | 72 ± 21 |
| 6.33 ± 0.56 | 3.46 ± 0.39 | 215 to 220 | Cc1ccc(C=NNC(=O)Cn2nc(CNC(=O)c3c(C)cc(C)nc3S)oc2=S)cc1 [Compound 7, 4,6-Dimethyl-N-{[4-(2-(2-(4-methylbenzylidene)hydrazinyl)-2-oxoethyl)-5-sulfanylidene-4,5-dihydro-1,3,4-oxadiazole-2-yl]methyl}-2-sulfanylpyridine-3-carboxamide] | 58.2 ± 2 | 68.3 ± 3.24 | 81 ± 23 | 103 ± 39 | 95 ± 27 | 107 ± 38 |
| 6.19 ± 0.19 | 3.12 ± 0.23 | 278 to 280 | Cc1cc(C)c(C(=O)NCc2nn(CC(=O)NN=Cc3ccc(Cl)cc3)c(=S)o2)c(S)n1 [Compound 10, 4,6-Dimethyl-N-{[4-(2-(2-(4-chlorobenzylidene)hydrazinyl)-2-oxoethyl)-5-sulfanylidene-4,5-dihydro-1,3,4-oxadiazole-2-yl]methyl}-2-sulfanylpyridine-3-carboxamide] | 59.9 ± 2.04 | 130 ± 9.5 | 82 ± 37 | 73 ± 27 | 91 ± 14 | 85 ± 27 |
